Reference: US9303019B2, “Amino-pyrroline derivatives, and use thereof in the prevention and/or treatment of metabolic syndrome” (UNIVERSITE DE STRASBOURG, priority 2012, dated 2016)
pKi: −log10 of the molar value. Counter-ions that a name gives are not always drawn.

Tests used:
I1 receptor [1] = target: I1 receptor (Homo sapiens, UniProt Q9Y2I1); experiment: Specific binding assay of the I1 receptor on human platelets with [125I]LNP 911
Description: Binding assays were performed at 37° C. using [^125I]LNP 911 as radioligand following the general procedure described but adapted to washed whole platelets (Greney, H.; Urosevic, D.; Schann, S.; Dupuy, L.; Bruban, V.; Ehrhardt, J,-D.; Bousquet, P.; Dontenwill, M. [^125I]2-(2-Chloro-4-iodo-phenylamino)-5-methyl-pyrroline (LNP911), a High-Affinity Radioligand Selective for I1 Imidazoline Receptors. Mol. Pharmacol. 2002, 62, 181-191).
Incubation was initiated through the addition of 900 to 950 μl of platelet suspension at a concentration of 500000/μl in a final volume of 1 ml Tyrode albumin and was performed at 37° C. for 5 min (equilibrium conditions). The competitive assays were conducted using a single concentration of radioligand ([…], 200 000 cpm), in the presence of increasing concentrations of suitable non-labelled ligand. Non-specific binding was determined by the binding of [^125I]LNP 911 in the presence of 100 nM of non-labelled LNP 911 and represented about 10% of total radioactivity when […] of [^125I]LNP 911 were used.
The reaction was halted by rapid vacuum filtration through GF/C fibre glass filters followed by five rapid washings of the filters with 3 ml of ice-cold Tyrode ([…], pH 7.35). Radioactivity was measured using a gamma counter (Wallac 1410).
(§1) The competitive assays were analyzed by non-linear regression using the GraphPad programme.
(§2) Ki values were determined using the method described by Cheng and Prussof (Cheng, Y. C.; Prusoff, W. H. Relationship between the Inhibition Constant (Ki) and the Concentration of Inhibitor which causes 50 percent Inhibition (I50) of an Enzymatic Reaction. Biochem. Pharmacol. 1973, 22, 3099-3108).

α2-adrenergic receptors = experiment: Binding assay of the α2-adrenergic receptors on CHO cell membranes with [3H]RX821002; parameters: species or system human; conditions: CHO cells
Description: These membranes (30 μg proteins/ml for CHO-hα2A and CHO-hα2B, 100 μg protein/ml for CHO-hα2C) were incubated for 60 min at ambient temperature in binding buffer (33 mM Tris-HCl, 1 mM EDTA, pH 7.5) in a final volume of 500 μL containing 0.8 or 1 or 2 nM [^3H]RX821002 respectively for the adrenergic receptors hα2A, hα2B and hα2C.
Incubation was halted by rapid vacuum filtration through GF/C glass fibre filters followed by three successive washings in ice-cold binding buffer.
Non-specific binding was determined using 10 μM phentolamine.
as §1, §2

I1 receptor [2] = target: I1 receptor (Mus musculus, UniProt Q80TM9); experiment: Competitive binding to [125I]-PIC in membranes of 3T3 adipocytes; parameters: species or system murine; conditions: 3T3 cell membranes
Description: The adipocytes were washed twice with ice-cold PBS, harvested and homogenized in 25 mM Tris-HCl buffer, pH 7.5, 1 mM EDTA. The homogenates were centrifuged at 20,000×g for 15 min at 4° C. and the supernatant stored at −80° C. until use. The residues were re-suspended in 25 mM Tris-HCl buffer, pH 7.5, 1 mM EDTA and stored at −80° C. […]
The reaction was halted by rapid vacuum filtration through GF/B fibre glass filters treated with 0.3% PEI using filtering equipment of Brandel® type, followed by three rapid washings of the filters using 3 ml of ice-cold 50 mM Tris-HCl buffer, pH 7.4. The radioactivity retained on the dried filters was determined using a Minaxi gamma counter (Packard, Meriden, CT, USA). Non-specific binding was determined by [^125I]PIC binding in the presence of 10 μM PIC and represented about 43% of total radioactivity.

3T3-L1 adipocytes = experiment: Secretion of adiponectin by differentiated 3T3-L1 adipocytes (ELISA); format: cell-based, murine
Description: 3T3-L1 murine preadipocytes were cultured to confluence at 37° C. in DMEM medium containing 4.5 g/litre of D-glucose, 10% FCS and antibiotics. At confluence, differentiation of the 3T3-L1 adipocytes was initiated through the addition over 48 h of a mixture containing 100 μM methyl-isobutylxanthine, 100 nm dexamethasone and 175 nM insulin. The cells were then passaged every 2-3 days in DMEM, 10% FCS and 175 nM insulin. More than 95% of cells had the phenotype of mature adipocytes 10 days after confluence was reached.
To determine the secretion of adiponectin by mature adipocytes, differentiated 3T3-L1 adipocytes (10 days after confluence) were placed in culture in 12-well plates and washed three times with DMEM, then cultured for 6 h in DMEM alone, in the absence or presence of 3 μM of compound 1. In some wells the antagonist selective for the imidazoline receptors I1, efaroxan, was added (100 μM) 30 min before exposure to compound 1.
The culture medium was then recovered, centrifuged for 3 min at 10 000 g to remove cell contaminants, and the supernatant was stored at −80° C. until use. After two washings in cold PBS, the adipocytes were collected in PBS, homogenized and stored at −80° C. An aliquot of adipocyte homogenate was stored for protein determination. The adiponectin was measured using an ELISA kit following the manufacturer's recommendations. The adiponectin concentration was normalized with the cell protein content.

Sequence of I1 receptor (Homo sapiens, UniProt Q9Y2I1) (Q9Y2I1 2-1504 limits assumed): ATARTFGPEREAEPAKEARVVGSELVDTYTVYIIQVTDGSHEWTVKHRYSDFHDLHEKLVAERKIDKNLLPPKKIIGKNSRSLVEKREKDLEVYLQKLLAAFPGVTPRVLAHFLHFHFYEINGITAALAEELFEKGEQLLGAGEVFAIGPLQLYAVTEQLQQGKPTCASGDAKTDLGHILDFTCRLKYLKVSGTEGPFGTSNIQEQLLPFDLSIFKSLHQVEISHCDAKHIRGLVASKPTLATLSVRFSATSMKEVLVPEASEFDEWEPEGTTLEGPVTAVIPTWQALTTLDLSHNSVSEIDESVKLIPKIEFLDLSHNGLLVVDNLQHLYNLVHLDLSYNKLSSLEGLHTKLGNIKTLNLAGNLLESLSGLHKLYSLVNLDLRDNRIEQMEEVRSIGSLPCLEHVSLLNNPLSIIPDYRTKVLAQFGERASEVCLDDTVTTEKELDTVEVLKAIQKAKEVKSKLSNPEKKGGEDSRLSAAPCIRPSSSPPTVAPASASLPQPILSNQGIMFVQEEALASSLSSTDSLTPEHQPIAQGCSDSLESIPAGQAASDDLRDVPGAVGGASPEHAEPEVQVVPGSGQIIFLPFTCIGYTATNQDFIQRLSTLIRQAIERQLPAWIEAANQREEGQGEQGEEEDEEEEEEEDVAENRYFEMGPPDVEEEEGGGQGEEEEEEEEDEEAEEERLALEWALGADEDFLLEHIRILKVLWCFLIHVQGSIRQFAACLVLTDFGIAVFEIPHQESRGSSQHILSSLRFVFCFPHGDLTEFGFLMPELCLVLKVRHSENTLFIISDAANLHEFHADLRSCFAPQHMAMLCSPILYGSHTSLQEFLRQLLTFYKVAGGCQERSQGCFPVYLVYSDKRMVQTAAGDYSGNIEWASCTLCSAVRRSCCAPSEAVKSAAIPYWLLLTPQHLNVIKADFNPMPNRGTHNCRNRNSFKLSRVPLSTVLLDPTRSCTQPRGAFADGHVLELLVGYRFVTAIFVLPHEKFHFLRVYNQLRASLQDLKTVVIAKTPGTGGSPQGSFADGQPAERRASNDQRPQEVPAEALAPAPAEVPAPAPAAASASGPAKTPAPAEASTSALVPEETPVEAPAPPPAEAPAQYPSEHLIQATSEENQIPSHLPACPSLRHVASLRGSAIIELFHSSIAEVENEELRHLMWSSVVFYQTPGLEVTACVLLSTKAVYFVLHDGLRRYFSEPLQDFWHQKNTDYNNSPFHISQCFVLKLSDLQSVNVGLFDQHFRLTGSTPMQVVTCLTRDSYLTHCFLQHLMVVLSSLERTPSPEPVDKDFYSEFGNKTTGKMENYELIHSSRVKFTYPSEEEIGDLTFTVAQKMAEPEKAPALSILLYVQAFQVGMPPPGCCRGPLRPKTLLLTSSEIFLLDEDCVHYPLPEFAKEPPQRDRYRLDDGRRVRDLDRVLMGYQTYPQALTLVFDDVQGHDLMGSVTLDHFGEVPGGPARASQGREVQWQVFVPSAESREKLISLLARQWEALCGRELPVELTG
Sequence of I1 receptor (Mus musculus, UniProt Q80TM9) (Q80TM9 whole entry, looked up): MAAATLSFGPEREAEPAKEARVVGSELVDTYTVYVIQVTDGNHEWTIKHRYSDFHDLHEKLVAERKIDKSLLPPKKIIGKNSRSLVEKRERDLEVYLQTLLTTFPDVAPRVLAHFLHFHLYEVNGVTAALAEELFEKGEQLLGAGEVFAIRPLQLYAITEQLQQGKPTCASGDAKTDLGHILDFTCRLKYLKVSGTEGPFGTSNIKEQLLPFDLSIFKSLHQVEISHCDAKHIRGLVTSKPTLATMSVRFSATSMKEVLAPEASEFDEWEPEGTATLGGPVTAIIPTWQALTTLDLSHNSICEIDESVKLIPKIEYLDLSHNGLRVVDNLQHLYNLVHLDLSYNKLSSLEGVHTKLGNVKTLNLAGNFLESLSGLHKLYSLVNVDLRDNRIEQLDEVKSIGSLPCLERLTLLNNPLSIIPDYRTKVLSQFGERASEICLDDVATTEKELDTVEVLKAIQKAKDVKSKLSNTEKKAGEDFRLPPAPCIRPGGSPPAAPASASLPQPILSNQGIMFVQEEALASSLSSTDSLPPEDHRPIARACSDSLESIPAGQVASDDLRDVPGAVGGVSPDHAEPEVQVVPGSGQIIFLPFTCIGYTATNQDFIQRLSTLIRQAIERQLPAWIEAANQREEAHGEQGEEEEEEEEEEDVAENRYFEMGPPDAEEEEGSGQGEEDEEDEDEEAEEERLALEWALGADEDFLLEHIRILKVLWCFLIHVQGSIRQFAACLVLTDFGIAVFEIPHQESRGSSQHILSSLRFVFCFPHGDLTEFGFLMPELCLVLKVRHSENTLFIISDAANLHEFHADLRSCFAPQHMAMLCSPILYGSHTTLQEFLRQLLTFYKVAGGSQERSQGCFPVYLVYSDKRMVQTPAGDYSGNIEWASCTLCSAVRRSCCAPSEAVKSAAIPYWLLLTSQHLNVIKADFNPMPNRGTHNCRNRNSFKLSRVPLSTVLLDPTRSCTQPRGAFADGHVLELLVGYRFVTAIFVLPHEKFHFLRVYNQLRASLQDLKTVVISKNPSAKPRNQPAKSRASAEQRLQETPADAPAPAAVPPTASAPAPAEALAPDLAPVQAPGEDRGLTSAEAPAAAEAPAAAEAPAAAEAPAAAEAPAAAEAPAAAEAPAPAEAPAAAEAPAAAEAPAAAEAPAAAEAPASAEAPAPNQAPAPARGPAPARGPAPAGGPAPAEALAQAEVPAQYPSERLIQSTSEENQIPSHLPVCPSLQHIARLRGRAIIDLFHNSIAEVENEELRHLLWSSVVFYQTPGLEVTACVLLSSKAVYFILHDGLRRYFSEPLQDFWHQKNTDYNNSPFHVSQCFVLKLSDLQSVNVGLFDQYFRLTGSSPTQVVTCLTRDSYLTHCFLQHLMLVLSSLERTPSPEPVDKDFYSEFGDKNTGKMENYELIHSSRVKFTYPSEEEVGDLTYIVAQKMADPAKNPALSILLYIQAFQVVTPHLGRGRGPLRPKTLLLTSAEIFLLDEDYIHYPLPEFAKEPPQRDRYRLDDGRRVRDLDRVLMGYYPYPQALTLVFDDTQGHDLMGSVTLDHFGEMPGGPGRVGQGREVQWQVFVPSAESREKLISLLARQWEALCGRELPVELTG

SMILES	pKi (I1 receptor [1])	pKi (α2-adrenergic receptors)	further results
CC1CCC(Nc2cccc3c2CCC3)=N1 (stereo not drawn) [Compound 5, Indan-4-yl-(5-methyl-4,5-dihydro-3H-pyrrol-2-yl)-amine hydrochloride]	7.72	< 5.00	
CC1CN=C(Nc2ccc(Cl)c3c2CCC3)C1 (stereo not drawn) [Compound 8, (7-Chloro-indan-4-yl)-(4-methyl-4,5-dihydro-3H-pyrrol-2-yl)-amine hydrochloride]	9.66	< 5.00	
Cc1ccc(NC2=NCC(C)C2)c2c1CCC2 (stereo not drawn) [Compound 9, (7-Methyl-indan-4-yl)-(4-methyl-4,5-dihydro-3H-pyrrol-2-yl)-amine hydrochloride]		< 5.00	
CC1CCC(Nc2ccccc2Cl)=N1.Cl (stereo not drawn) [Compound 13, (2-Chlorophenyl)-(5-methyl-4,5-dihydro-3H-pyrrol-2-yl)-amine hydrochloride]		< 5.00	melting point: 173 to 174 °C
CC1CCC(Nc2ccc(Cl)c3c2CCC3)=N1 (stereo not drawn) [Compound 20, (7-Chloro-indan-4-yl)-(5-methyl-4,5-dihydro-3H-pyrrol-2-yl)-amine hydrochloride]	8.55	< 5.00	
Clc1cccc(Cl)c1N=C1NCCN1 [clonidine]			share of total sites with high affinity (I1 receptor [2]): 57%
CCC1(C2=NCCN2)Cc2ccccc2O1 (stereo not drawn) [efaroxan]			secretion of adiponectin, efaroxan alone (3T3-L1 adipocytes; 100 μmol/l, control 212.6±19.1): 175.2±15.5 ng/ml/mg of proteins; secretion of adiponectin, pre-incubation with efaroxan before compound 1 (3T3-L1 adipocytes; efaroxan 100 μmol/l 30 min before compound 1 3 μmol/l, vs. 378±38 with compound 1 alone): 236±19.2 ng/ml/mg of proteins
